{"source": "patent US10266537B2", "about": "“3-acetylenyl-pyrazole-pyrimidine derivative, and preparation method therefor and uses thereof” (Si Chuan University, priority 2015, dated 2019)", "key": {"ErbB2": {"biological_target": "ErbB2 (Homo sapiens (Human), UniProt P04626)", "assay": "Kinase inhibition assay (KinaseProfiler, 33P-ATP)", "type": "biochemical", "conditions": "ErbB2(h); compound at 10 μM; read-out: The percentage of the remaining active protein"}, "SW1990": {"test_system": "SW1990", "assay": "Cell proliferation inhibition assay (MTT)", "type": "cell-based", "conditions": "Homo sapiens, SW1990, 72 h, read-out: Proliferation inhibitory activity IC50", "method": "(§1) The cells were seeded in 96-well plates with 200 μL of cell suspension per well and incubated overnight in a cell culture medium with a cell concentration of 1 2×10^4 cells/mL. The next day, the supernatant was discarded (the suspension cell was centrifuged before it) and the cells were treated with gradient concentrations of the test compound, respectively. […] After 72 hours, add 20 μL of MTT reagent at a concentration of 5 mg/mL per well. After incubation for 2-4 h, the supernatant was discarded and 150 μL of DMSO was added to each well. […] Relative cell proliferation inhibition rate=([MUT]-[MUT])×100%/[MUT]. The experiment was repeated at least 3 times. Experimental data were expressed as mean, data statistics using t test, P<0.05 for the difference was statistically significant."}, "MDA-MB-231": {"test_system": "MDA-MB-231", "assay": "Cell proliferation inhibition assay (MTT)", "type": "cell-based, human", "method": "The remaining cell lines were cultured in DMEM complete medium containing 10% fetal bovine serum (MV4-11 cells 20%), 100 U/ml penicillin, 100 μg/mL streptomycin at 5% CO2, and 37° C.\nThe cells were seeded in 96-well plates with 200 μL of cell suspension per well and incubated overnight in a cell culture medium with a cell concentration of 1˜2×10^4 cells/mL. The next day, the supernatant was discarded (the suspension cell was centrifuged before it) and the cells were treated with gradient concentrations of the test compound, respectively. At the same time, the drug-free negative control group and the equal volume of solvent control group, DMSO concentration of 0.1%, each dose group set up three wells, 37° C., 5% CO2 conditions. After 72 hours, add 20 μL of MTT reagent at a concentration of 5 mg/mL per well. After incubation for 2-4 h, the supernatant was discarded and 150 μL of DMSO was added to each well. […] Determine the absorbance (A) value (λ=570 nm, A value is proportional to the number of living cells), whichever is the average. […] The experiment was repeated at least 3 times. Experimental data were expressed as mean, data statistics using t test, P<0.05 for the difference was statistically significant. The inhibitory effects of the following compounds on cell proliferation were expressed as IC50 or inhibition rates."}, "IKKβ": {"biological_target": "IKKβ (Homo sapiens (Human), UniProt O14920)", "assay": "Kinase inhibition assay (KinaseProfiler, 33P-ATP)", "type": "biochemical", "conditions": "IKKβ; ATP at Km"}, "Fer(h)": {"biological_target": "Fer(h) (Homo sapiens (Human), UniProt P16591)", "assay": "Kinase inhibition assay (KinaseProfiler, 33P-ATP)", "type": "biochemical", "conditions": "compound at 10 μM, read-out: The percentage of the remaining active protein"}, "MDA-MB-435": {"test_system": "MDA-MB-435", "assay": "Cell proliferation inhibition assay (MTT)", "type": "cell-based, human"}, "A375": {"test_system": "A375", "assay": "Cell proliferation inhibition assay (MTT)", "type": "cell-based", "conditions": "Homo sapiens, A-375, 72 h, read-out: Proliferation inhibitory activity IC50", "method": "as §1"}, "MDA-MB-468": {"test_system": "MDA-MB-468", "assay": "Cell proliferation inhibition assay (MTT)", "type": "cell-based", "conditions": "Homo sapiens, MDA-MB-468, 72 h, read-out: Proliferation inhibitory activity IC50", "method": "as §1"}, "ARK5(h)": {"biological_target": "ARK5(h) (Homo sapiens (Human), UniProt O60285)", "sequence (O60285 whole entry)": "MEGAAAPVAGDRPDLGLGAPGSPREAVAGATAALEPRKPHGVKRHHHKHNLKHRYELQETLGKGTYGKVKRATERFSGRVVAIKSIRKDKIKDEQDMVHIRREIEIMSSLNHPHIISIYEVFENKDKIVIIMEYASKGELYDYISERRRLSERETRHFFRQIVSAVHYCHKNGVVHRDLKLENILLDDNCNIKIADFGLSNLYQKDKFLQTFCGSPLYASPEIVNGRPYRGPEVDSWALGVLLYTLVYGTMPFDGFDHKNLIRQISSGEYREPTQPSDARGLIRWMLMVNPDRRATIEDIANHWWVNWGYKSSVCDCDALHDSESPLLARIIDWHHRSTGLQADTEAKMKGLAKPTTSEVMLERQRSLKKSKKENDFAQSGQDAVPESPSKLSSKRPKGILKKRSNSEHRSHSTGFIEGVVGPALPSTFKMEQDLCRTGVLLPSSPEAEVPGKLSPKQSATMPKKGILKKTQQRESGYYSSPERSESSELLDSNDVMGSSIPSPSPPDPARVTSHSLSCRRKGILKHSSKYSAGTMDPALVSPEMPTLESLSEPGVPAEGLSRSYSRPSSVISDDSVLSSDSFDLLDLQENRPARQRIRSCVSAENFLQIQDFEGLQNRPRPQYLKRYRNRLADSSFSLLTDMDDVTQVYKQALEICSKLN", "assay": "Kinase inhibition assay (KinaseProfiler, 33P-ATP)", "type": "biochemical", "conditions": "compound at 10 μM, read-out: The percentage of the remaining active protein"}, "PKCα(h)": {"biological_target": "PKCα(h) (Homo sapiens (Human), UniProt P17252)", "assay": "Kinase inhibition assay (KinaseProfiler, 33P-ATP)", "type": "biochemical", "conditions": "compound at 10 μM, read-out: The percentage of the remaining active protein"}, "EphA8(h)": {"biological_target": "EphA8(h) (Homo sapiens (Human), UniProt P29322)", "assay": "Kinase inhibition assay (KinaseProfiler, 33P-ATP)", "type": "biochemical", "conditions": "compound at 10 μM, read-out: The percentage of the remaining active protein"}, "RIPK2(h)": {"biological_target": "RIPK2(h) (Homo sapiens (Human), UniProt O43353)", "sequence (O43353 whole entry)": "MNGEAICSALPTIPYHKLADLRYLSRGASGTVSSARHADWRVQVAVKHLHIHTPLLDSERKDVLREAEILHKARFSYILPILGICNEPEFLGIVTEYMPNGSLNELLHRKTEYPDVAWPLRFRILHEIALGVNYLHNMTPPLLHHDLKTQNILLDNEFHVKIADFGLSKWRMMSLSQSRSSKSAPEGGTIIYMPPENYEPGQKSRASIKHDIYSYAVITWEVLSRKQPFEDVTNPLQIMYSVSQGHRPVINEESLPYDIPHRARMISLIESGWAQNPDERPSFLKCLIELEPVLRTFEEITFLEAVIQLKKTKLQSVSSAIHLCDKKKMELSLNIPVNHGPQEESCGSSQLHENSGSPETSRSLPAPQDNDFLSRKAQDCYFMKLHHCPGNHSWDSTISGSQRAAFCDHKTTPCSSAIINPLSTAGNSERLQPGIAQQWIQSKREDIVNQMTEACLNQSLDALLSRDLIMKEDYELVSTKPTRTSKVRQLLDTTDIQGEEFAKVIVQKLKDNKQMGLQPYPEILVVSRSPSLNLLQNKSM", "assay": "Kinase inhibition assay (KinaseProfiler, 33P-ATP)", "type": "biochemical", "conditions": "compound at 10 μM, read-out: The percentage of the remaining active protein"}, "ALK(h)": {"biological_target": "ALK(h) (Homo sapiens (Human), UniProt Q9UM73)", "assay": "Kinase inhibition assay (KinaseProfiler, 33P-ATP)", "type": "biochemical", "conditions": "compound at 10 μM, read-out: The percentage of the remaining active protein"}, "Miapaca-2": {"test_system": "Miapaca-2", "assay": "Cell proliferation inhibition assay (MTT)", "type": "cell-based", "conditions": "Homo sapiens, MIA PaCa-2, 72 h, read-out: Proliferation inhibitory activity IC50", "method": "as §1"}, "PKA(h)": {"biological_target": "PKA(h) (Homo sapiens (Human), UniProt P17612)", "assay": "Kinase inhibition assay (KinaseProfiler, 33P-ATP)", "type": "biochemical", "conditions": "compound at 10 μM, read-out: The percentage of the remaining active protein"}, "Fms(h)": {"biological_target": "Fms(h) (Homo sapiens (Human), UniProt P07333)", "assay": "Kinase inhibition assay (KinaseProfiler, 33P-ATP)", "type": "biochemical", "conditions": "compound at 10 μM, read-out: The percentage of the remaining active protein"}, "c-Src(T341M)": {"biological_target": "c-Src(T341M) (Homo sapiens (Human), UniProt P12931, T341M)", "sequence (P12931 whole entry T341M, looked up)": "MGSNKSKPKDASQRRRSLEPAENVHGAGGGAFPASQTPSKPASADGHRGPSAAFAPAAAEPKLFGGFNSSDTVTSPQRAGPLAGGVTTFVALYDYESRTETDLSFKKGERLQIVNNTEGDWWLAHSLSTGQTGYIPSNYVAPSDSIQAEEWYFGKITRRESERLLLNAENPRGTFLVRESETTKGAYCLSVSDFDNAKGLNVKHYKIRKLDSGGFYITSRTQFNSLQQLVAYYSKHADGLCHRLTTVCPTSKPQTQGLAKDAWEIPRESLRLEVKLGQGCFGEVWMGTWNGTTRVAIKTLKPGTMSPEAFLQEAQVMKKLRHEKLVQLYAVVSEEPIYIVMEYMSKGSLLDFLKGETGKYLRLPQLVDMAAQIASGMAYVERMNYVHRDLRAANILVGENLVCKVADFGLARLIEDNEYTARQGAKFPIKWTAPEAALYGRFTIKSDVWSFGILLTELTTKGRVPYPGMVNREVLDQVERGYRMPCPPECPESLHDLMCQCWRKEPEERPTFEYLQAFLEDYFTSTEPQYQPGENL", "assay": "Kinase inhibition assay (KinaseProfiler, 33P-ATP)", "type": "biochemical", "conditions": "c-Src(T341M); ATP at Km"}, "EphB2": {"biological_target": "EphB2 (Homo sapiens (Human), UniProt P29323)", "assay": "Kinase inhibition assay (KinaseProfiler, 33P-ATP)", "type": "biochemical", "conditions": "EphB2(h); compound at 10 μM; read-out: The percentage of the remaining active protein"}, "Itk(h)": {"biological_target": "Itk(h) (Homo sapiens (Human), UniProt Q08881)", "sequence (Q08881 whole entry)": "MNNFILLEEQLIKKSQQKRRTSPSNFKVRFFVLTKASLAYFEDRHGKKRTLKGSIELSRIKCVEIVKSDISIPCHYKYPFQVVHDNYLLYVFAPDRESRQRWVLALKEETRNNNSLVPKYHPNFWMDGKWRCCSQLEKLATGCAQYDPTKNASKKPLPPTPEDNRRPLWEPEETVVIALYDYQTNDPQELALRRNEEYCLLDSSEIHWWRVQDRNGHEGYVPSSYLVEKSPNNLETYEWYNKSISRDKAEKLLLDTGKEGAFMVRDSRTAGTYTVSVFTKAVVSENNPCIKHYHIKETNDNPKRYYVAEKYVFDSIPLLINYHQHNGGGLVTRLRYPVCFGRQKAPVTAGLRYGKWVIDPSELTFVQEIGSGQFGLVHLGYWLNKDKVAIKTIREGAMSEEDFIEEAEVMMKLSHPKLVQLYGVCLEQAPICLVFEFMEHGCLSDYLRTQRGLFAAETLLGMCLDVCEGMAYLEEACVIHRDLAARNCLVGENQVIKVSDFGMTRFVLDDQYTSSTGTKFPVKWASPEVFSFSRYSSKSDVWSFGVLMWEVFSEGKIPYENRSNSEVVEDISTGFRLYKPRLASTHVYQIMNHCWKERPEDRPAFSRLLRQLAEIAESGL", "assay": "Kinase inhibition assay (KinaseProfiler, 33P-ATP)", "type": "biochemical", "conditions": "compound at 10 μM, read-out: The percentage of the remaining active protein"}, "RAMOS": {"test_system": "RAMOS", "assay": "Cell proliferation inhibition assay (MTT)", "type": "cell-based", "conditions": "Homo sapiens, Ramos, 72 h, read-out: Proliferation inhibitory activity IC50", "method": "as §1"}, "CDK7": {"biological_target": "CDK7 (Homo sapiens (Human), UniProt P50613)", "assay": "Kinase inhibition assay (KinaseProfiler, 33P-ATP)", "type": "biochemical", "conditions": "CDK7; compound at 10 μM; read-out: The percentage of the remaining active protein"}, "KDR": {"biological_target": "KDR (Homo sapiens (Human), UniProt P35968)", "sequence (P35968 20-1356)": "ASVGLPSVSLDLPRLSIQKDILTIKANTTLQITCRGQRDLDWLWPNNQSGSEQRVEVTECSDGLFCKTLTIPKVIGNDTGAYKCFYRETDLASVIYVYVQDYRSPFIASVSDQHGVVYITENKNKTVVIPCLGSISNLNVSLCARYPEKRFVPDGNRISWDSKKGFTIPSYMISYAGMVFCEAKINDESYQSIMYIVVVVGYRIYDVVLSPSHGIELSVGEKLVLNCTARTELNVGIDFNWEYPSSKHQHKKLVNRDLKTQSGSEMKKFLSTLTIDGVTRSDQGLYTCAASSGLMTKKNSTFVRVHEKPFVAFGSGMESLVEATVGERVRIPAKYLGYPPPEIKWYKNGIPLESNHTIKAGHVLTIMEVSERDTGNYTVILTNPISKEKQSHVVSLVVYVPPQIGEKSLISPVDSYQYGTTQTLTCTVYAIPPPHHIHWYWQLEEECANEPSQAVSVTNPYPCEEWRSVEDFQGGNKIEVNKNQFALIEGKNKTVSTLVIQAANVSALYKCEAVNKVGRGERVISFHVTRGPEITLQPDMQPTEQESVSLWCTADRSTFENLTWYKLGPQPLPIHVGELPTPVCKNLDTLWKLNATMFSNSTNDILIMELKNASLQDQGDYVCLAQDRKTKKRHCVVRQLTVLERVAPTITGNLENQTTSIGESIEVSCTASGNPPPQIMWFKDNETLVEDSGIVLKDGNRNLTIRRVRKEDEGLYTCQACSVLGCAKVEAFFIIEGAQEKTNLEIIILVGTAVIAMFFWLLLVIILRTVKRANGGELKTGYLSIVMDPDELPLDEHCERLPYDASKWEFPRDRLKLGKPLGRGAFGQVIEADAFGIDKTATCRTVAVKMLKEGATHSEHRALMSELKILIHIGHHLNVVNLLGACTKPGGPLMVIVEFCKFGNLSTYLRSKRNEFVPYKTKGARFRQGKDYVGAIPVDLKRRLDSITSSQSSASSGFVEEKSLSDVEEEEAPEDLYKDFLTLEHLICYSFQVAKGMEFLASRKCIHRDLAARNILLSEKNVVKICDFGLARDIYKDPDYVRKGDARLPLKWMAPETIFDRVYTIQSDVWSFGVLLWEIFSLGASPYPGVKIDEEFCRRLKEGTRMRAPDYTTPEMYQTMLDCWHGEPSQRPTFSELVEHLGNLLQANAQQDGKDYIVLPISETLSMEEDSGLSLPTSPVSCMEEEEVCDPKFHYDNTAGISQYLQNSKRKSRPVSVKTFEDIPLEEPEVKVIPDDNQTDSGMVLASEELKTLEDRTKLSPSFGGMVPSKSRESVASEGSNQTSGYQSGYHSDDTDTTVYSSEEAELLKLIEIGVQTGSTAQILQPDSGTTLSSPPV", "assay": "Kinase inhibition assay (KinaseProfiler, 33P-ATP)", "type": "biochemical"}, "B-Raf": {"biological_target": "B-Raf (Homo sapiens (Human), UniProt P15056)", "sequence (P15056 whole entry)": "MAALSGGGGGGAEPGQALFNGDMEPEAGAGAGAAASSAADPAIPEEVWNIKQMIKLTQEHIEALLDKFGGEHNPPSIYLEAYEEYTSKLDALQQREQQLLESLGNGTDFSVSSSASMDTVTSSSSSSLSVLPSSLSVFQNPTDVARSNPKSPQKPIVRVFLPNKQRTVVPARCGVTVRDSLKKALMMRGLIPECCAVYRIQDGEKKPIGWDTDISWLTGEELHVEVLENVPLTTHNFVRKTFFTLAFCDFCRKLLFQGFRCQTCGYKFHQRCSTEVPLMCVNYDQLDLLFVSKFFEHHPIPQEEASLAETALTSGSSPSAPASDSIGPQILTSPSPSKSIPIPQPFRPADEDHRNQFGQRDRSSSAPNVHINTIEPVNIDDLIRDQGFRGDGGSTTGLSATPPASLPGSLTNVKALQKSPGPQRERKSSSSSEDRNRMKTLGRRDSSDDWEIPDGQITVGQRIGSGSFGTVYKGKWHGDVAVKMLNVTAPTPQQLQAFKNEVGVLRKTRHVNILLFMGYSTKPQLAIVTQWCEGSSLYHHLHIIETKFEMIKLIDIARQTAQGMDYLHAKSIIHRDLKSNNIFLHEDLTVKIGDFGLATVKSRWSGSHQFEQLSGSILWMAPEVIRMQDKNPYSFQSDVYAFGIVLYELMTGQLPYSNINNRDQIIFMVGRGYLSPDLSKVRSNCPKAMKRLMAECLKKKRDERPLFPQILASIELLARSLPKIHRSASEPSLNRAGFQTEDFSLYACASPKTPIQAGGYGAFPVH", "assay": "Kinase inhibition assay (KinaseProfiler, 33P-ATP)"}, "Fyn": {"biological_target": "Fyn (Homo sapiens (Human), UniProt P06241)", "sequence (P06241 whole entry)": "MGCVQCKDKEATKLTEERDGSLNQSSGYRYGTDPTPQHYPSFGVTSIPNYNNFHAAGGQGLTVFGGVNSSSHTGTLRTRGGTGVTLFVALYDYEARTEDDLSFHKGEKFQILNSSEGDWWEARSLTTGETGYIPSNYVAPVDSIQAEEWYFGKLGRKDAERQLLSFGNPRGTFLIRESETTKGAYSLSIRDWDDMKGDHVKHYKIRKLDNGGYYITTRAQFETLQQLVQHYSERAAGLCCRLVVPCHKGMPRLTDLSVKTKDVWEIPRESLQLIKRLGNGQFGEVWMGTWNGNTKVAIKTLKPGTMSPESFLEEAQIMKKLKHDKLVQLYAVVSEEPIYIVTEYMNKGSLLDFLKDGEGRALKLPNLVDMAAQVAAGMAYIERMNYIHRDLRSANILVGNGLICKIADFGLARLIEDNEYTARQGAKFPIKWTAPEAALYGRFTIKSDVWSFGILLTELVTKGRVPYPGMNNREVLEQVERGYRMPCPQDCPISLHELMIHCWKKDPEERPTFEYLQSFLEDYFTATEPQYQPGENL", "assay": "Kinase inhibition assay (KinaseProfiler, 33P-ATP)", "type": "biochemical"}, "FGFR1": {"biological_target": "FGFR1 (Homo sapiens (Human), UniProt P11362)", "assay": "Kinase inhibition assay (KinaseProfiler, 33P-ATP)", "type": "biochemical", "conditions": "FGFR1; ATP at Km"}, "Abl": {"biological_target": "Abl (Homo sapiens (Human), UniProt P00519)", "assay": "Kinase inhibition assay (KinaseProfiler, 33P-ATP)", "type": "biochemical", "conditions": "Abl; ATP at Km"}, "mTOR(h)": {"biological_target": "mTOR(h) (Homo sapiens (Human), UniProt P42345)", "assay": "Kinase inhibition assay (KinaseProfiler, 33P-ATP)", "type": "biochemical", "conditions": "compound at 10 μM, read-out: The percentage of the remaining active protein"}, "JNK1α1(h)": {"biological_target": "JNK1α1(h) (Homo sapiens (Human), UniProt P45983)", "assay": "Kinase inhibition assay (KinaseProfiler, 33P-ATP)", "type": "biochemical", "conditions": "compound at 10 μM, read-out: The percentage of the remaining active protein"}, "Blk": {"biological_target": "Blk (Homo sapiens (Human), UniProt P51451)", "assay": "Kinase inhibition assay (KinaseProfiler, 33P-ATP)", "type": "biochemical", "conditions": "Blk; ATP at Km"}}, "note": "Like-named read-outs stand apart in the source and are kept apart here.", "data": [{"smiles": "CCn1nc(C#Cc2cc(C(=O)Nc3ccc(CN4CCN(C)CC4)c(C(F)(F)F)c3)ccc2C)c2c(N)ncnc21", "note": "[Compound 3]", "values": [{"measurement": "remaining activity at 10 µM", "setting": "ErbB2", "value": 3, "unit": "%"}, {"measurement": "IC50", "setting": "SW1990", "value": 356, "unit": "nM"}, {"measurement": "IC50", "setting": "MDA-MB-231; Homo sapiens, MDA-MB-231, 72 h, read-out: Proliferation inhibitory activity IC50", "value": 11.3, "unit": "nM"}, {"measurement": "IC50", "setting": "MDA-MB-231; read-out: Proliferative inhibitory activity MDA-MB-231 (IC50 class)", "value": "< 100", "unit": "nM"}, {"measurement": "IC50", "setting": "IKKβ", "value": 164, "unit": "nM"}, {"measurement": "remaining activity at 10 µM", "setting": "Fer(h)", "value": 23, "unit": "%"}, {"measurement": "IC50", "setting": "MDA-MB-435; Homo sapiens, MDA-MB-435, 72 h, read-out: Proliferation inhibitory activity IC50", "value": 8.65, "unit": "nM"}, {"measurement": "IC50", "setting": "MDA-MB-435; read-out: Proliferative inhibitory activity MDA-MB-435 (IC50 class)", "value": "< 100", "unit": "nM"}, {"measurement": "IC50", "setting": "A375", "value": 20.9, "unit": "nM"}, {"measurement": "IC50", "setting": "MDA-MB-468", "value": 4480, "unit": "nM"}, {"measurement": "remaining activity at 10 µM", "setting": "ARK5(h)", "value": 105, "unit": "%"}, {"measurement": "remaining activity at 10 µM", "setting": "PKCα(h)", "value": 101, "unit": "%"}, {"measurement": "remaining activity at 10 µM", "setting": "EphA8(h)", "value": -5, "unit": "%"}, {"measurement": "remaining activity at 10 µM", "setting": "RIPK2(h)", "value": 3, "unit": "%"}, {"measurement": "remaining activity at 10 µM", "setting": "ALK(h)", "value": 27, "unit": "%"}, {"measurement": "IC50", "setting": "Miapaca-2", "value": 12.8, "unit": "nM"}, {"measurement": "remaining activity at 10 µM", "setting": "PKA(h)", "value": 17, "unit": "%"}, {"measurement": "remaining activity at 10 µM", "setting": "Fms(h)", "value": 0, "unit": "%"}, {"measurement": "IC50", "setting": "c-Src(T341M)", "value": 30, "unit": "nM"}, {"measurement": "remaining activity at 10 µM", "setting": "EphB2", "value": 0, "unit": "%"}, {"measurement": "remaining activity at 10 µM", "setting": "Itk(h)", "value": 5, "unit": "%"}, {"measurement": "IC50", "setting": "RAMOS", "value": "~10000", "unit": "nM"}, {"measurement": "remaining activity at 10 µM", "setting": "CDK7", "value": 70, "unit": "%"}, {"measurement": "remaining activity at 10 µM", "setting": "KDR; KDR(h), compound at 10 μM, read-out: The percentage of the remaining active protein", "value": 2, "unit": "%"}, {"measurement": "IC50", "setting": "KDR; KDR, ATP at Km", "value": 17, "unit": "nM"}, {"measurement": "IC50", "setting": "B-Raf; B-Raf, ATP at Km", "value": 92, "unit": "nM"}, {"measurement": "remaining activity at 10 µM", "setting": "B-Raf; read-out: The percentage of the remaining active protein", "value": 5, "unit": "%"}, {"measurement": "remaining activity at 10 µM", "setting": "Fyn; Fyn(h), compound at 10 μM, read-out: The percentage of the remaining active protein", "value": 0, "unit": "%"}, {"measurement": "IC50", "setting": "Fyn; Fyn, ATP at Km", "value": 5, "unit": "nM"}, {"measurement": "IC50", "setting": "FGFR1", "value": 3, "unit": "nM"}, {"measurement": "IC50", "setting": "Abl", "value": "< 1", "unit": "nM"}, {"measurement": "remaining activity at 10 µM", "setting": "mTOR(h)", "value": 96, "unit": "%"}, {"measurement": "remaining activity at 10 µM", "setting": "JNK1α1(h)", "value": 66, "unit": "%"}, {"measurement": "IC50", "setting": "Blk", "value": 19, "unit": "nM"}]}]}
